Reference: article PMC11605156, “Triterpenoids from Ganoderma lucidum inhibit cytochrome P450 enzymes interfering with the metabolic process of specific clinical drugs” (Frontiers in Pharmacology, 2024)

Legend:
CYP2D6 = CYP2D6 (Homo sapiens, UniProt P10635); experiment: CYP2D6 inhibition, dextromethorphan probe in human liver microsomes; conditions: for activity at 30 min: human, human liver microsomes, pH 7.4, probe dextromethorphan 5 μM, Residual activity (%) CYP2D6, HLM 0.5 mg/mL
Method: (§1) The total volume of the in vitro metabolic incubation system is 200 μL. The probe substrate concentration in the system is shown in Supplementary Table S1. […] The reaction sample was preheated in a constant temperature mixer at 37°C. Then NADP^+ was added to the system to initiate the reaction. The reaction time is 30 min, and 100 μL acetonitrile will be added on time to quickly terminate the reaction, followed by centrifugation at 4°C and 20,000 g for 20 min. The supernatant was analyzed using liquid chromatography tandem mass spectrometry (LC-MS/MS), and the activity of CYP enzymes was evaluated by the generation of probe metabolites. The mass spectrometry information of probe substrates is shown in Supplementary Table S3.
(§2) The isolated triterpenoids (1–66) were used to establish a compounds library. The inhibitory effects of 66 triterpenoids from G. lucidum on seven subtypes of CYP enzymes (CYP1A2, 2A6, 2D6, 2B6, 2C9, 2C19, 3A4) were evaluated followed the above-mentioned experimental procedures.
(§3) Table S1. The information of probes for CYPs activity assay

CYP2C9 = CYP2C9 (Homo sapiens, UniProt P11712); experiment: CYP2C9 inhibition, probe/drug metabolism in human liver microsomes; conditions: diclofenac 4 μM, 30 min; for activity at 30 min: human, human liver microsomes, pH 7.4, probe diclofenac 4 μM, Residual activity (%) CYP2C9, HLM 0.5 mg/mL
Method: as §1, §2
(§4) For 16 clinical drugs metabolized by CYP enzymes, potential DDI studies were conducted on triterpenoids (6, 25) of G. lucidum, and IC50 values were measured.
(§5) Clinical drugs: Phenacetin, melatonin, clozapine and riluzole are metabolized by CYP1A2. Bupropion, artemisinin, efavirenz and sertraline are metabolized by CYP2B6. Diclofenac, valsartan, glimepiride and glibenclamide are metabolized by CYP2C9. Midazolam, imatinib, simvastatin and diltiazem are metabolized by CYP3A4.
as §3
(§6) Table S2. Information of clinical drugs

CYP2C19 = CYP2C19 (Homo sapiens, UniProt P33261); experiment: CYP2C19 inhibition, S-mephenytoin probe in human liver microsomes; conditions: S-mephenytoin 50 μM, 30 min; for activity at 30 min: human, human liver microsomes, pH 7.4, probe S-mephenytoin 50 μM, Residual activity (%) CYP2C19, HLM 0.5 mg/mL
Method: as §1, §2, §3

CYP3A4 = CYP3A4 (Homo sapiens, UniProt P08684); experiment: CYP3A4 inhibition, probe/drug metabolism in human liver microsomes; conditions: midazolam 5 μM, 30 min; for activity at 30 min: human, human liver microsomes, pH 7.4, probe midazolam 5 μM, Residual activity (%) CYP3A4, HLM 0.5 mg/mL
Method: as §1, §2, §4, §5, §3, §6

CYP2B6 = target: T1, CYP2B6 (Homo sapiens, UniProt P20813); experiment: CYP2B6 inhibition, probe/drug metabolism in human liver microsomes; conditions: bupropion 75 μM, 30 min; for activity at 30 min: human, human liver microsomes, pH 7.4, probe bupropion 75 μM, Residual activity (%) CYP2B6, HLM 0.5 mg/mL
T1 sequence (P20813 1-491): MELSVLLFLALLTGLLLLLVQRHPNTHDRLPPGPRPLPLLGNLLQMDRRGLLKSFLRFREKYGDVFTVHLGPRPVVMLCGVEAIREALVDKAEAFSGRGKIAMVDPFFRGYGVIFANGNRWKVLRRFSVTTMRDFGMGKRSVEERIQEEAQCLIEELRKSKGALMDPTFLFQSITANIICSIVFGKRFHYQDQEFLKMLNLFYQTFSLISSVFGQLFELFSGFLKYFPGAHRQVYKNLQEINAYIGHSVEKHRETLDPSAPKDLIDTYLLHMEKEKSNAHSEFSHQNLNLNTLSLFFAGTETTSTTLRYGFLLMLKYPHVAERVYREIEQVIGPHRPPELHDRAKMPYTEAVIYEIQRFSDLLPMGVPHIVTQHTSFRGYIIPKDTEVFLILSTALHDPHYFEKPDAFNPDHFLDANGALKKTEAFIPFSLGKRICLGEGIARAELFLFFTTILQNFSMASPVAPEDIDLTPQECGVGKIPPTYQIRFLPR
Method: as §1, §2, §4, §5, §3, §6

CYP1A2 = target: T2, CYP1A2 (Homo sapiens, UniProt P05177); experiment: CYP1A2 inhibition, probe/drug metabolism in human liver microsomes (LC-MS/MS); conditions: for activity at 30 min: Residual activity (%) CYP1A2, HLM 0.5 mg/mL; for activity at 30 min / Residual activity (%) CYP1A2: phenacetin 40 μM, 30 min; for Residual activity (%) CYP1A2: HLM 0.5 mg/mL
T2 sequence (P05177 1-516): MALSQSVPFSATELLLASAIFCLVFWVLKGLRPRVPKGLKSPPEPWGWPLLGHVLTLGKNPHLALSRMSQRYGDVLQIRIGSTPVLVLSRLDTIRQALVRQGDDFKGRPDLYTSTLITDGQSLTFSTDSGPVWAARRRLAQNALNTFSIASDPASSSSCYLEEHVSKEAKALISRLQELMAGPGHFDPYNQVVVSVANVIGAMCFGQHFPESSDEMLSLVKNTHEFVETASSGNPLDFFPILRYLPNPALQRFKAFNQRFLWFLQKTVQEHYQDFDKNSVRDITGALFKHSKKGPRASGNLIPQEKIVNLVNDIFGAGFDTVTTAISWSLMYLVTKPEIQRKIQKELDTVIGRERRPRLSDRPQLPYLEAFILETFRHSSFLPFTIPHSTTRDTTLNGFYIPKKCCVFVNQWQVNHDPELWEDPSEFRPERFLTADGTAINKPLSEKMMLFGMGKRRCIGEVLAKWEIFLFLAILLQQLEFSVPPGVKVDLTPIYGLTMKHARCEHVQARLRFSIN
Method: as §1, §2, §4, §5, §3, §6

CYP2A6 = target: T3, CYP2A6 (Homo sapiens, UniProt P11509); experiment: CYP2A6 inhibition, coumarin probe in human liver microsomes; conditions: for activity at 30 min: human, human liver microsomes, pH 7.4, probe coumarin 2 μM, Residual activity (%) CYP2A6, HLM 0.5 mg/mL
T3 sequence (P11509 1-494): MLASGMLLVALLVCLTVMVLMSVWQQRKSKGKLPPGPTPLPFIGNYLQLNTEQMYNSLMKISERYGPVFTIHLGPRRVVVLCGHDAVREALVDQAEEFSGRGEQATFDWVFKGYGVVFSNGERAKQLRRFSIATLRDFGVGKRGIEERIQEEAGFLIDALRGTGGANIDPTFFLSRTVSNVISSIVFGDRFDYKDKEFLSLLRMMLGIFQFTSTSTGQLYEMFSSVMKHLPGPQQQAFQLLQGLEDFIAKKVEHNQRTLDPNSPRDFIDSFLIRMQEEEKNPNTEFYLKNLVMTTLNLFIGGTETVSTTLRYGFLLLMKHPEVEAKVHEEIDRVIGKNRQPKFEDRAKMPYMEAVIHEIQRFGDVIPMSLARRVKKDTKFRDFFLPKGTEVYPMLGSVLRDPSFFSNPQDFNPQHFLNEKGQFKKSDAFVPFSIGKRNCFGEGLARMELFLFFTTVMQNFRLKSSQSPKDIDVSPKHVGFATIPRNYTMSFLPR
Method: as §1, §2, §3

[1] = IC50 against CYP 1A2, substrate phenacetin 40 μM, HLM
[2] = human, human liver microsomes, pH 7.4, probe phenacetin 40 μM

Chain of CYP2D6 (P10635 whole entry): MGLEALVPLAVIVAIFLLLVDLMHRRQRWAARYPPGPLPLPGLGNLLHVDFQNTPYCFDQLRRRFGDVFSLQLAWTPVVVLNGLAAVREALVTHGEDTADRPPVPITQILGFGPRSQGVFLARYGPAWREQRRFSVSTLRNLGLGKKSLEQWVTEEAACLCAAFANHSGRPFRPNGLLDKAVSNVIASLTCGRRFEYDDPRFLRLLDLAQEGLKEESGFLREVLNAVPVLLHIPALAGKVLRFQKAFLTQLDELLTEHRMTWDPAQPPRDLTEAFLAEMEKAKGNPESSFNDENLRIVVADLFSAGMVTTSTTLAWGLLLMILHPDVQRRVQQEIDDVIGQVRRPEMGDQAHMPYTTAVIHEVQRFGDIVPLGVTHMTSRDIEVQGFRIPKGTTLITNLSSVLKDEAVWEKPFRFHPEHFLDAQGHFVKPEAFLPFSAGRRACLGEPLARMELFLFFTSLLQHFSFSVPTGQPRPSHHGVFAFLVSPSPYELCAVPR
Chain of CYP3A4 (P08684 whole entry): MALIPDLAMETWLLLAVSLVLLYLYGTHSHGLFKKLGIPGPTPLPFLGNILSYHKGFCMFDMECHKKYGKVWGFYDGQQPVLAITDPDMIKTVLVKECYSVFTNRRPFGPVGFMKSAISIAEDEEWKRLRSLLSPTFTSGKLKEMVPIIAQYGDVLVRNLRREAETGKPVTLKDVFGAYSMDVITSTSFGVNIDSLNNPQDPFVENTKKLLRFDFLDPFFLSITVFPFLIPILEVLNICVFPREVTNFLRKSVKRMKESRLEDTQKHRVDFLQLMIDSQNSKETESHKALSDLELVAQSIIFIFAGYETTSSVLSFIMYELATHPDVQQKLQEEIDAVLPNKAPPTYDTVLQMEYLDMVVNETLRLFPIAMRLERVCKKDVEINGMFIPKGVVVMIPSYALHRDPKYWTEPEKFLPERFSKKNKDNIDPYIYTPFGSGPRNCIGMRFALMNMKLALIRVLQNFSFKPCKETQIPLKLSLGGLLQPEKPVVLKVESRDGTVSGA
Chain of CYP2C19 (P33261 whole entry): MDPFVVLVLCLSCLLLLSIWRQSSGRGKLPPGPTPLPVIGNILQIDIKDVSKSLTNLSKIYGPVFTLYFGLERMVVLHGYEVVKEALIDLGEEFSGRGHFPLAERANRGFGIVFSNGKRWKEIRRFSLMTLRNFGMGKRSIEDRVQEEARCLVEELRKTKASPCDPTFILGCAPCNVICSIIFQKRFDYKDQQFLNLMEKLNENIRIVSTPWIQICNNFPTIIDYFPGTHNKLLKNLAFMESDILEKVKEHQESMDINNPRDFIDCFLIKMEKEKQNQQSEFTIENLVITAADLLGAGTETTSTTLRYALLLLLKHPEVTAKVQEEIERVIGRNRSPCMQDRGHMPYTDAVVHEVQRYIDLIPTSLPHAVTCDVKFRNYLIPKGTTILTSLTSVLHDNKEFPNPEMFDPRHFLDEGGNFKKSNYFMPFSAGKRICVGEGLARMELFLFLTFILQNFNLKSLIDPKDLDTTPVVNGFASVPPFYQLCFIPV
Chain of CYP2C9 (P11712 whole entry): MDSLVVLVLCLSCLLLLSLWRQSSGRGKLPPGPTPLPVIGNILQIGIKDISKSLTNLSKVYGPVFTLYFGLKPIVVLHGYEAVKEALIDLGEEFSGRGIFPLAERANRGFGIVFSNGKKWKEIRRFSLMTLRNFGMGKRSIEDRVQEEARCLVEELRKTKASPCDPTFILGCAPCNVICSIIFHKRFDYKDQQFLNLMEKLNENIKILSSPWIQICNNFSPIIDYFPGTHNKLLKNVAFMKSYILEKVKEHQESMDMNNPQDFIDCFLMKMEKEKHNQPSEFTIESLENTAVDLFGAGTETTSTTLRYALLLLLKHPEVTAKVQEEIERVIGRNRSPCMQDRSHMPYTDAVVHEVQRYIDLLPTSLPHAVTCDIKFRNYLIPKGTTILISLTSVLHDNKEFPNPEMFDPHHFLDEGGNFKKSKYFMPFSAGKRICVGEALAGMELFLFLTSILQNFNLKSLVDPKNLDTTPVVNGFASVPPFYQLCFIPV

| Structure (SMILES) | activity at 30 min (CYP2D6) | activity at 30 min (CYP2C9) | activity at 30 min (CYP2C19) | activity at 30 min (CYP3A4) | activity at 30 min (CYP2B6) | IC50 (CYP1A2; [1]) | activity at 30 min (CYP1A2; [2]) | activity at 30 min (CYP2A6) | Residual activity (%) CYP1A2 (CYP1A2) | IC50 at 30 min (CYP1A2; human, human liver microsomes, pH 7.4, probe phenacetin 40 μM, IC50 against CYP 1A2, substrate phenacetin 40 μM, HLM) | Residual activity (%) CYP2D6 (CYP2D6; HLM 0.5 mg/mL, dextromethorphan 5 μM, 30 min) | Residual activity (%) CYP2C9 (CYP2C9; HLM 0.5 mg/mL) | Residual activity (%) CYP2C19 (CYP2C19; HLM 0.5 mg/mL) | Residual activity (%) CYP3A4 (CYP3A4; HLM 0.5 mg/mL) | Residual activity (%) CYP2B6 (CYP2B6; HLM 0.5 mg/mL) | Residual activity (%) CYP2A6 (CYP2A6; HLM 0.5 mg/mL, coumarin 2 μM, 30 min) |
| --- | --- | --- | --- | --- | --- | --- | --- | --- | --- | --- | --- | --- | --- | --- | --- | --- |
| CC(=O)OC1C(=O)C2=C(C(O)CC3C2(C)CCC(O)C3(C)C)C2(C)C(=O)CC(C(C)=CC(=O)CC(C)C(=O)O)C12C (stereo not drawn) [Compound 7] | 104 ± 4.79% | 90 ± 1.41% | 74.81 ± 0.08% | 94.6 ± 1.15% | 90.6 ± 2.12% | 12.8 ± 1.47 µM | 32.5 ± 1% | 88.05 ± 0.74% |  |  |  |  |  |  |  |  |
| CC(CC(=O)CC(C)C1CC(=O)C2(C)C3=C(C(=O)CC12C)C1(C)CCC(=O)C(C)(CO)C1CC3O)C(=O)O (stereo not drawn) [Compound 8] | 76.9 ± 0.9% | 94.8 ± 5.64% | 68.6 ± 7.25% | 90.8 ± 3.82% | 91.6 ± 8.64% | 11.3 ± 0.31 µM | 30.2 ± 3.05% | 79.1 ± 0.81% |  |  |  |  |  |  |  |  |
| CC(=O)OC1C(=O)C2=C(C(=O)CC3C(C)(C)C(=O)CCC23C)C2(C)C(=O)CC(C(C)CC(=O)CC(C)C(=O)O)C12C (stereo not drawn) [Compound 9] | 94 ± 5.67% | 77 ± 5.67% | 105 ± 6.46% | 93.7 ± 4.04% | 94.3 ± 1.83% |  |  | 91.5 ± 2.1% | 89.44±0.96% |  |  |  |  |  |  |  |
| CC(=CC(=O)CC(C)C(=O)O)C1CC(=O)C2(C)C3=C(C(=O)C(O)C12C)C1(C)CCC(O)C(C)(C)C1CC3=O (stereo not drawn) [Compound 17] | 99.4 ± 3.9% | 90 ± 1.36% | 85.5 ± 2.57% | 97.6 ± 2.29% | 76.6 ± 7.68% | 21.8 ± 1.15 µM | 54.4 ± 8.91% | 91.89 ± 0.88% |  |  |  |  |  |  |  |  |
| CC(=O)OC1C(=O)C2=C(C(=O)CC3C(C)(C)C(=O)CCC23C)C2(C)C(=O)CC(C(C)CC(O)C=C(C)C(=O)O)C12C (stereo not drawn) [Compound 31] | 103 ± 3.3% | 80.99 ± 0.51% | 94.8 ± 4.46% | 104 ± 1.72% | 71.2 ± 4.24% |  | 53.7 ± 1.44% | 86.17 ± 0.44% |  | 29 ± 6.91 µM |  |  |  |  |  |  |
| CC1(C)CCC2(C(=O)O)CCC3(C)C(=C2C1)C=CC1C2(C)CCC(O)C(C)(C)C2CCC13C (stereo not drawn) [Compound 36] | 72.7 ± 10.4% | 82.9 ± 2.75% | 84.38 ± 0.53% | 55.4 ± 1.19% | 88.6 ± 6.9% |  | 81.9 ± 5.81% | 87 ± 1.46% |  |  |  |  |  |  |  |  |
| CC1(C)CCC2(C(=O)O)CCC3(C)C(=CC(=O)C4C5(C)CCC(O)C(C)(C)C5CCC43C)C2C1 (stereo not drawn) [Compound 37] | 104 ± 3.22% | 94.8 ± 3.33% | 97.6 ± 4.86% | 60.1 ± 3.57% | 94.3 ± 3.45% |  | 88 ± 3.49% | 104 ± 1.4% |  |  |  |  |  |  |  |  |
| CC(CC(=O)CC(C)C1CC(O)C2(C)C3=C(C(=O)CC12C)C1(C)CCC(=O)C(C)(C)C1CC3)C(=O)O (stereo not drawn) [Compound 42] | 103 ± 3.3% | 62.8 ± 2.72% | 79.3 ± 0.38% | 96.8 ± 4.2% | 89.1 ± 3.71% | 21.4 ± 5.21 µM | 43.8 ± 4.18% | 83.7 ± 8.67% |  |  |  |  |  |  |  |  |
| CC(=O)OC1C(=O)C2=C(C(=O)CC3C(C)(C)C(=O)CCC23C)C2(C)C(=O)CC(C(C)CC(=O)CC(C)C(=O)O)C12C (stereo not drawn) [Compound 50] |  |  |  |  |  |  |  |  | 62.18±2.53% |  | 93.94±6.92% | 96.49±3.97% | 116.59±7.39% | 98.83±1.66% | 77.48±4.68% | 89.71±3.49% |
| CC(=CC(=O)CC(C)C(=O)O)C1CC(=O)C2(C)C3=C(C(=O)CC12C)C1(C)CCC(=O)C(C)(C)C1CC3O (stereo not drawn) [Compound 51] | 89.5 ± 3.3% | 99.8 ± 6.62% | 110 ± 3.54% | 94.1 ± 7.18% | 77.8 ± 7.96% | 38.6 ± 9.4 µM | 58 ± 2.08% | 86 ± 4.07% |  |  |  |  |  |  |  |  |
| CC(=O)OC1C(=O)C2=C(C(=O)CC3C2(C)CCC(O)C3(C)C)C2(C)C(=O)CC(C3(C)CCC(=O)O3)C12C (stereo not drawn) [Compound 56] | 86.9 ± 1.32% | 92.5 ± 0.99% | 109 ± 6.43% | 82.8 ± 1.1% | 84.1 ± 0.94% | 34.2 ± 6.9 µM | 56 ± 0.69% | 72.3 ± 1.11% |  |  |  |  |  |  |  |  |
